Results reported in EPA's ToxValDB 9.5 (doi:10.2903/j.efsa.2010.1555).

Experiments:
Tagia sp. = details: acute; duration: 14 days; mortality
Coturnix japonica = details: reproduction developmental
Canidae = details: chronic; duration: 1 years; oral; Dog Other
Daphnia magna = details: chronic/long-term; duration: 21 days; reproduction
Coturnix coturnix = details: acute; oral; diet; mortality
Apis mellifera = details: acute; oral; unspecified; mortality
[1] = reproduction developmental, body weight

CCC([O-])=C1C(=O)CC(C(=O)[O-])CC1=O.[Ca+2] (stereo unspecified) [Prohexadione-calcium]
LC50 (Tagia sp.): > 1000 mg/kg | LD50 (Anas platyrhynchos; acute, oral, unspecified, mortality): > 2000 mg/kg | NOEC (Anas platyrhynchos; reproductive): 116 mg/kg-day | LC50 (Anas platyrhynchos; short-term, oral, feed, mortality): > 1350 mg/kg-day | NOEC (Coturnix japonica): 126 mg/kg-day | NOAEL (Canidae): 20 mg/kg-day | NOEC (Daphnia magna): 100 mg/L | LD50 (Rattus norvegicus; acute, oral, mortality): > 5000 mg/kg | NOAEL (Rattus norvegicus; [1]): 35 mg/kg-day | NOEL (Rattus norvegicus; [1]): 35 mg/kg-day | LD50 (Colinus virginianus; acute, oral, mortality): > 2000 mg/kg | NOEC (Colinus virginianus; reproduction developmental): 48.8 mg/kg-day | LC50 (Oncorhynchus mykiss; acute, duration: 96 hours, mortality): > 100 µg/mL | NOEC (Oncorhynchus mykiss; chronic/long-term, duration: 28 days, growth): 100 mg/L | LC50 (Coturnix coturnix): > 1210 mg/kg-day | LD50 (Apis mellifera): > 100 µg/piece
